# Results reported in PubChem BioAssay AID1159560 (GlaxoSmithKline (GSK), 2015).
# pIC50: −log10 of the molar value. The source made the active and inactive calls. No rule for the calls is given here.
# Test system: Leishmania donovani growth inhibition
# Test: antileishmanial activity against L. donovani parasites (AID 1159560);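 also: parasites exposed to compound for 72 h before the viability read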
SMILES,IC50,pIC50
CC(C)(C)C(=O)NCCc1csc(-c2ccc(F)cc2)n1,> 50 µM (inactive),–
CC1(C)CCC(=Cc2ccc(Cl)cc2)CC1(O)Cn1ccnc1 (centres undefined),–,5.60
Cc1nc(C(=O)Nc2ccc3c(c2)OCO3)nn1-c1ccc(F)cc1,–,5.70
Cc1ncsc1CNc1cnc(-c2ccc3c(c2)OCCO3)c(-c2cnn(C)c2)c1,–,4.60
COCCn1c(-c2ccc3c(c2)OCO3)cnc1NCc1ccccc1OC,–,4.89
CN(Cc1cc2ccccc2s1)c1ncc2c(N)nc(N)nc2n1,–,4.49
CN(C)CCN(C)Cc1ccc(F)cc1NS(=O)(=O)c1ccc(Cl)c(Cl)c1,–,5.10
O=C(Nc1ccc(C(F)(F)F)cc1)Nc1cccc([N+](=O)[O-])c1,–,5.10
O=C(CSc1nnc(-c2ccc3c(c2)OCO3)o1)N(Cc1ccco1)CC(F)(F)F,–,4.80
CNc1cc(C)nc(C2CN(C(=O)c3n[nH]c4ccccc34)CCO2)c1 (centres undefined),> 50 µM (inactive),–
Nc1nc(-c2ccccn2)nc(-n2nc(-c3ccccc3)cc2N)n1,–,5.70
Cc1ccc(S(=O)(=O)Nc2ccc(CN3CCN(C(=O)c4cccc(C#N)c4)CC3)cc2)cc1,–,5.00
Cn1nc(-c2ccc(NC(=O)Cc3ccccc3Cl)cc2)c2c(N)ncnc21,> 50 µM (inactive),–
COc1cccc(C(=O)[C@H]2C[C@@H]2CN(Cc2ccccn2)Cc2ccccn2)c1,–,5.10
COc1ccc(NS(=O)(=O)c2cc(NC(=O)Cc3ccc(C)cc3)ccc2N2CCOCC2)cc1,–,4.40
Cc1nc(N2CCC(C(=O)N3CCC(O)(c4cccnc4)CC3)CC2)nc2ccc(C(C)C)cc12,> 50 µM (inactive),–
C=CCN(Cc1cccs1)C(=O)CSc1nnc(-c2ccc3c(c2)OCO3)o1,–,5.20
COc1cccc(Nc2cc(C)nc(-c3ccccn3)n2)c1,–,5.40
O=C(Nc1nc(-c2ccc(S(=O)(=O)N3CCOCC3)cc2)cs1)c1ccc([N+](=O)[O-])cc1,> 50 µM (inactive),–
CCOc1ccccc1C(=O)Nc1nnc(-c2ccc3c(c2)OCO3)s1,–,6.10
Cn1nc([N+](=O)[O-])nc1N1CCCCC1,> 50 µM (inactive),–
Cc1ccc(NC(=O)c2ccc([N+](=O)[O-])s2)cc1S(=O)(=O)N1CCOCC1,–,5.70
Cc1c(C(C)NC(=O)Nc2cccc(Cl)c2)sc2ncnn12 (centres undefined),–,5.70
CCOc1ccc(CC(=O)N2c3ccccc3CC2C(=O)NC)cc1 (centres undefined),> 50 µM (inactive),–
O=C(CCc1ccc(-c2ccccc2)o1)N1CCN(c2ccc(O)cc2)CC1,–,5.00
N#Cc1cccc(CN2CCC(c3nc(-c4ccc(C(F)(F)F)nc4)no3)CC2)c1,–,4.89

SMILES,IC50,pIC50
O=C(Nc1nc(-c2ccccn2)cs1)c1ccc(S(=O)(=O)N2CCCCC2)cc1,–,6.20
O=c1[nH]c(C=Cc2cccc(OCCOc3ccccc3)c2)nc(O)c1[N+](=O)[O-],> 50 µM (inactive),–
Nc1cc(-c2ccc3ncnc(N4CCOCC4)c3c2)cnc1N,–,5.40
O=C1CN(Cc2ccco2)C2CS(=O)(=O)CC2N1c1ccc(Cl)cc1 (centres undefined),> 50 µM (inactive),–
Cc1cc(NC(=O)C2CC2)ccc1OC1CCN(Cc2ccco2)CC1,> 50 µM (inactive),–
Cc1nn(-c2nc(N)nc(-c3ccccn3)n2)c(C)c1Cc1ccccc1,–,5.30
CC(C)C[C@H](NC(=O)c1csc(-c2cccs2)n1)C(=O)NC1(C#N)CC1,–,5.30
C=CCOCC1Cn2nc([N+](=O)[O-])nc2O1 (centres undefined),> 50 µM (inactive),–
COc1ccc(C2CC(c3ccccc3Cl)=NN2C(=O)CNC(=O)C2CCC2)cc1 (centres undefined),> 50 µM (inactive),–
Cc1[nH]nc2c1C(c1ccc(OCc3ccccc3F)cc1)SCC(=O)N2 (centres undefined),–,4.40
O=C(O)[C@H]1C[C@@H]1c1ccc(-c2ccc(CN(CCc3ccccn3)C(=O)C3CCC3)cc2)cc1,–,4.60
Cc1nc2c(-c3ncn[nH]3)cc(NC(=O)Cc3ccccc3)cn2c1C,–,6.10
O=C(NCC(c1cccnc1)N1CCc2ccccc2C1)C(=O)Nc1cccc(Cl)c1 (centres undefined),–,5.89
COCCn1c(-c2ccccc2)cnc1NCc1ccccc1OC,> 50 µM (inactive),–
Cc1cccc(N2CCCN(Cc3c[nH]c4ccccc34)CC2)n1,> 50 µM (inactive),–
Fc1ccc(Nc2nc(-c3ccccn3)cs2)cc1,–,4.70
CCOc1ccc2nc(NC(=O)c3ccc([N+](=O)[O-])s3)sc2c1,–,5.60
O=[N+]([O-])c1ccc(-c2nnn(-c3ccc(Cl)cc3)n2)o1,–,5.20
COc1ccc(C2CC(c3ccc(NS(C)(=O)=O)cc3)=NN2C(=O)c2cccs2)cc1OC (centres undefined),–,4.89
O=C(CN(Cc1ccccn1)Cc1ccccn1)NCc1csc(-c2cccs2)n1,–,4.89
COc1ccc(C(=O)N2CCC(Nc3cccnc3)C2)c(OC)n1 (centres undefined),–,4.80
COc1cc(Cl)c(C)cc1NC(=O)c1ccc([N+](=O)[O-])s1,–,5.10
Fc1ccc(OC2CC(NCc3cccc4cn[nH]c34)C2)cc1C(F)(F)F (centres undefined),–,4.70
CC(C)(C)Nc1nc(Nc2ccc3c(c2)CS(=O)(=O)C3)nc2[nH]ccc12,–,5.10
O=C1COC(c2ccccc2)(c2ccccc2)CN1C1CCN(Cc2ccc(-n3ccnc3)cc2)CC1,–,4.49
O=S(=O)(c1ccccc1C(F)(F)F)N1CCN(Cc2ccc(-n3ccnc3)cc2)CC1,–,5.20

SMILES,IC50,pIC50
COc1cc(OC)cc(C(=O)N[C@@H](CC(C)C)C(=O)NC2(C#N)CC2)c1,> 50 µM (inactive),–
CNc1nc(C)nc(N2CCc3cc(C(=O)NCc4ccc(-c5nccn5C)cc4Cl)ccc32)n1,–,5.30
Cn1cncc1CN1CCC2(CC1)COC(Cc1ccccc1)C2 (centres undefined),–,4.89
COc1ccc2ncc(F)c(CCN3CC[C@@H](NC(=O)c4cc5c(s4)CCC5)[C@@H](O)C3)c2n1,–,6.00
NC(=O)c1cc(F)ccc1Nc1nc(NC2CCC(O)CC2)ncc1Cl (centres undefined),–,5.49
CC(=O)Nc1ccc(-c2noc(CC3CCCN(Cc4cccc(F)c4C)C3)n2)cc1 (centres undefined),–,4.40
Cc1cc2cc(CNc3ccc4c(c3)OCO4)c(=O)n(CCO)c2cc1C,–,5.20
CCN(Cc1nc2ccc(C(=O)N3CCN(c4ncccn4)CC3)cc2[nH]1)C1CCCc2cccnc21 (centres undefined),–,5.30
O=C1NCc2cccc(Nc3nc(NC4CCC(O)CC4)ncc3Br)c21 (centres undefined),–,6.10
Clc1ccc(Sc2cnccc2N2CCOCC2)cc1,–,5.10
CC(C)n1c(-c2nonc2N)nc2cccc(OCCN3CCCC3)c21,> 50 µM (inactive),–
COc1ccc(C2CC(c3ccccc3Cl)=NN2C(=O)CNC(=O)C2CCCC2)cc1 (centres undefined),> 50 µM (inactive),–
O=C1OCc2ccc(Nc3nccc(-c4cnn5ncccc45)n3)cc21,–,7.20
Cc1ccc(S(=O)(=O)Nc2ccc(CN3CCN(C(=O)c4cccc(C)c4)CC3)cc2)cc1,–,4.60
CC(C)(C)CC(=O)NCCc1csc(-c2ccc(F)cc2)n1,> 50 µM (inactive),–
CCN(CC)S(=O)(=O)c1ccc(OC)c(NC(=O)c2ccc([N+](=O)[O-])s2)c1,> 50 µM (inactive),–
O=C(NCC1CCCCC1)c1cnns1,–,4.89
CNC(=O)C1Cc2ccccc2N1C(=O)Cc1ccccc1 (centres undefined),> 50 µM (inactive),–
COCc1cc(Nc2cccc(Cl)c2)nc(-c2ccccn2)n1,–,5.60
CCN(CC)S(=O)(=O)c1ccc(C)c(NC(=O)c2cc(Cl)c3c(c2)OCO3)c1,> 50 µM (inactive),–
Cc1ccc(Nc2nc(-c3ccccn3)cc(N3CCCC(O)C3)n2)cc1 (centres undefined),–,5.70
CS(=O)(=O)c1ccc(Nc2nccc(-c3cnn4ncccc34)n2)cc1,–,6.10
Cc1cccnc1NC(=O)c1cccc(OCc2c(C)noc2C)c1,> 50 µM (inactive),–
CN(C)Cc1ccc(N2CCC(NS(=O)(=O)c3ccc(Cl)cc3)CC2)cc1,–,4.40
CNC(=O)Oc1ccc(C(=O)NCc2ccccc2)cc1OC(=O)NC,> 50 µM (inactive),–
CC(CCc1ccccc1)NC(=O)CN(Cc1ccccn1)Cc1ccccn1 (centres undefined),–,5.10

SMILES,IC50,pIC50
CC(C)N(C(=O)CN1C(=O)C(N)C(=O)N(c2ccccc2)c2ccccc21)c1ccccc1 (centres undefined),> 50 µM (inactive),–
O=C(NCc1nnc2n1CCCCC2)c1csc(-c2ccccc2)n1,> 50 µM (inactive),–
O=C(CCCn1cnc([N+](=O)[O-])n1)Nc1cccc(Cl)c1,> 50 µM (inactive),–
CCC1Oc2cc(S(=O)(=O)N(C)CC(=O)N3CCc4ccccc4C3)c(C)cc2NC1=O (centres undefined),> 50 µM (inactive),–
COc1cnc2ccc(=O)n(CCN3CCC(NC(=O)Cc4ccc(Cl)c(Cl)c4)CC3)c2c1,–,5.30
O=C(Cn1cnc2c(-c3ccccc3)csc2c1=O)N1CCCCC1,> 50 µM (inactive),–
O=C(Nc1nc2cc(Cl)ccc2o1)c1cccc(Cl)c1,–,6.40
Clc1cc(Br)ccc1OCCCCn1ccnc1,–,6.89
CS(=O)(=O)c1ccccc1C(=O)N(Cc1ccccc1)c1ccccc1,–,4.80
Cc1ccccc1NS(=O)(=O)c1ccc2[nH]cc(C(=O)NC3CCCC3)c(=O)c2c1,> 50 µM (inactive),–
O=C(C1CCCCC1)N1CCN(c2nnc(-c3ccccc3)c3ccccc23)CC1,> 50 µM (inactive),–
COc1ccc2nccc(NC(=O)C3(OC)CCN(CC(O)c4ccc5c(c4)OCCO5)CC3)c2n1 (centres undefined),–,5.00
COc1ccc(C)cc1-c1csc(NC(=O)C(C)n2ccnc2)n1 (centres undefined),–,5.49
CNc1cncc(C2CCCN2C(=O)Cc2coc3cc(C)ccc23)n1 (centres undefined),–,5.49
Cc1cccc(NS(=O)(=O)c2cnc3sc(C)cn3c2=O)c1,> 50 µM (inactive),–
O=C(Cc1ccc2c(c1)CCC2)Nc1n[nH]c(-c2ccccn2)n1,–,5.10
COCCn1cnc2cc(NC(=O)C3CCCCC3)cc(C(=O)N3CCc4sccc4C3)c21,> 50 µM (inactive),–
N#Cc1cccc(Cc2cc(Nc3cc(C4CC4)[nH]n3)nc(N3CC[C@H]3C(N)=O)n2)c1,–,6.20
CCCN1CCN(Cc2ccc(S(=O)(=O)Nc3cccc(C)c3)cc2)CC1,–,4.60
CC1CCCN(S(=O)(=O)c2ccc(C(=O)Nc3nc(-c4ccccn4)cs3)cc2)C1 (centres undefined),–,5.80
O=C1CSC(c2cccnc2)N1c1ccc(Cl)cc1Cl (centres undefined),–,5.30
O=C(c1ccc(OCCCc2cnc[nH]2)cc1)C1CC1,> 50 µM (inactive),–
O=C(c1ccccc1)N1CCC(C(=O)N2CCC(Oc3ccccc3Cl)CC2)CC1,> 50 µM (inactive),–
Cc1c(CNC(=O)c2ccc(Cn3cc(Cl)c([N+](=O)[O-])n3)cc2)cnn1C,> 50 µM (inactive),–
Cc1nc2nc(C)c(Cc3ccc(C(C)C)cc3)c(=O)n2[nH]1,–,5.89
COC(=O)c1ccc(-c2cnc3ccc(NCc4ccccn4)nn23)cc1,–,4.89
